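Grown in 96-well plates, cells were treated for 48 hours with each compound at five concentrations. Insufficient inhibition: endpoint recorded as highest concentration tested. GI50 is the concentration that inhibits growth by half.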 Activity calls are given as the source filed them. Rule as the data show it: active = GI50 up to about 1.1 µM and inactive = higher.
Key:
Assay in all cases: inhibition of tumour cell growth, NCI panel, 48 h
MDA-N = test system: MDA-N
UACC-257 = test system: UACC-257
HCC 2998 = test system: HCC 2998
MDA-MB-231 = test system: MDA-MB-231
COLO 205 = test system: COLO 205
CCRF-CEM = test system: CCRF-CEM
SK-MEL-2 = test system: SK-MEL-2
T47D = test system: T47D
SK-MEL-28 = test system: SK-MEL-28
SNB-75 = test system: SNB-75
HCT-15 = test system: HCT-15
SF-295 = test system: SF-295
KM12 = test system: KM12
NCI/ADR-RES = test system: NCI/ADR-RES
NCI-H522 = test system: NCI-H522
EKVX = test system: EKVX
SN12C = test system: SN12C
NCI-H226 = test system: NCI-H226
ACHN = test system: ACHN
NCI-H23 = test system: NCI-H23
DU-145 = test system: DU-145
A498 = test system: A498
K562 = test system: K562
A549 = test system: A549
LOX IMVI = test system: LOX IMVI
OVCAR-4 = test system: OVCAR-4
PC-3 = test system: PC-3
RXF 393 = test system: RXF 393
OVCAR-3 = test system: OVCAR-3
SF-539 = test system: SF-539
HCT-116 = test system: HCT-116
SK-MEL-5 = test system: SK-MEL-5
M14 = test system: M14
NCI-H460 = test system: NCI-H460
OVCAR-5 = test system: OVCAR-5
SF-268 = test system: SF-268
HOP-62 = test system: HOP-62
OVCAR-8 = test system: OVCAR-8
UACC-62 = test system: UACC-62
MOLT-4 = test system: MOLT-4
SK-OV-3 = test system: SK-OV-3
MDA-MB-435 = test system: MDA-MB-435
IGROV-1 = test system: IGROV-1
U-251 = test system: U-251
HOP-92 = test system: HOP-92
CAKI-1 = test system: CAKI-1
SW-620 = test system: SW-620
786-0 = test system: 786-0
UO-31 = test system: UO-31
MCF7 = test system: MCF7
TK-10 = test system: TK-10
SNB-19 = test system: SNB-19
HT-29 = test system: HT-29
Malme-3M = test system: Malme-3M
HL-60 = test system: HL-60
SR = test system: SR
BT-549 = test system: BT-549
RPMI-8226 = test system: RPMI-8226

O=C1Oc2ccccc2C(=O)/C1=C/NC(=S)Nc1ccccc1
GI50 (MDA-N): 37.8 µM (inactive)
GI50 (UACC-257): 77.6 µM (inactive)
GI50 (HCC 2998): 40 µM (inactive)
GI50 (MDA-MB-231): 29 µM (inactive)
GI50 (COLO 205): 44.7 µM (inactive)
GI50 (CCRF-CEM): 28.5 µM (inactive)
GI50 (SK-MEL-2): 15.1 µM (inactive)
GI50 (T47D): 5.96 µM (inactive)
GI50 (SK-MEL-28): 44.2 µM (inactive)
GI50 (SNB-75): 20.4 µM (inactive)
GI50 (HCT-15): 28.3 µM
GI50 (SF-295): 52.2 µM (inactive)
GI50 (KM12): 49.4 µM (inactive)
GI50 (NCI/ADR-RES): 38.5 µM (inactive)
GI50 (NCI-H522): 30.1 µM (inactive)
GI50 (EKVX): 56.5 µM (inactive)
GI50 (SN12C): 40.1 µM (inactive)
GI50 (NCI-H226): 65.9 µM (inactive)
GI50 (ACHN): 23.6 µM (inactive)
GI50 (NCI-H23): 61.4 µM (inactive)
GI50 (DU-145): 46.1 µM (inactive)
GI50 (A498): 24.6 µM (inactive)
GI50 (K562): 56.4 µM (inactive)
GI50 (A549): 48.8 µM (inactive)
GI50 (LOX IMVI): 51.1 µM (inactive)
GI50 (OVCAR-4): 39.6 µM (inactive)
GI50 (PC-3): 55.6 µM (inactive)
GI50 (RXF 393): 0.119 µM (active)
GI50 (OVCAR-3): 25.4 µM (inactive)
GI50 (SF-539): 28.7 µM (inactive)
GI50 (HCT-116): 34.8 µM (inactive)
GI50 (SK-MEL-5): 42.5 µM (inactive)
GI50 (M14): 27 µM (inactive)
GI50 (NCI-H460): 32.1 µM (inactive)
GI50 (OVCAR-5): 80.4 µM (inactive)
GI50 (SF-268): 22.3 µM (inactive)
GI50 (HOP-62): 33.6 µM (inactive)
GI50 (OVCAR-8): 44.3 µM (inactive)
GI50 (UACC-62): 0.834 µM (active)
GI50 (MOLT-4): 31.8 µM (inactive)

OC1(c2ccccc2)CCCCCCCCC(O)(c2ccccc2)CCCCCCCC1 (configuration not stated)
GI50 (MDA-N): > 100 µM (inactive)
GI50 (UACC-257): > 100 µM (inactive)
GI50 (HCC 2998): > 100 µM (inactive)
GI50 (SK-OV-3): > 100 µM (inactive)
GI50 (COLO 205): > 100 µM (inactive)
GI50 (MDA-MB-435): > 100 µM (inactive)
GI50 (SK-MEL-2): > 100 µM (inactive)
GI50 (T47D): > 100 µM (inactive)
GI50 (SK-MEL-28): > 100 µM (inactive)
GI50 (SNB-75): > 100 µM (inactive)
GI50 (HCT-15): > 100 µM
GI50 (SF-295): > 100 µM (inactive)
GI50 (KM12): > 100 µM (inactive)
GI50 (NCI/ADR-RES): > 100 µM (inactive)
GI50 (NCI-H522): > 100 µM (inactive)
GI50 (EKVX): > 100 µM (inactive)
GI50 (IGROV-1): > 100 µM (inactive)
GI50 (U-251): > 100 µM (inactive)
GI50 (SN12C): > 100 µM (inactive)
GI50 (HOP-92): > 100 µM (inactive)
GI50 (CAKI-1): > 100 µM (inactive)
GI50 (SW-620): > 100 µM (inactive)
GI50 (ACHN): > 100 µM (inactive)
GI50 (NCI-H23): > 100 µM (inactive)
GI50 (786-0): > 100 µM (inactive)
GI50 (DU-145): > 100 µM (inactive)
GI50 (A498): > 100 µM (inactive)
GI50 (UO-31): > 100 µM (inactive)
GI50 (MCF7): > 100 µM (inactive)
GI50 (K562): > 100 µM (inactive)
GI50 (A549): > 100 µM (inactive)
GI50 (LOX IMVI): > 100 µM (inactive)
GI50 (TK-10): > 100 µM (inactive)
GI50 (OVCAR-4): > 100 µM (inactive)
GI50 (PC-3): > 100 µM (inactive)
GI50 (RXF 393): > 100 µM (inactive)
GI50 (SNB-19): > 100 µM (inactive)
GI50 (OVCAR-3): > 100 µM (inactive)
GI50 (SF-539): > 100 µM (inactive)
GI50 (HT-29): > 100 µM (inactive)
GI50 (HCT-116): > 100 µM (inactive)
GI50 (SK-MEL-5): > 100 µM (inactive)
GI50 (M14): > 100 µM (inactive)
GI50 (NCI-H460): > 100 µM (inactive)
GI50 (OVCAR-5): > 100 µM (inactive)
GI50 (SF-268): > 100 µM (inactive)
GI50 (HOP-62): > 100 µM (inactive)
GI50 (Malme-3M): > 100 µM (inactive)
GI50 (OVCAR-8): > 100 µM (inactive)
GI50 (UACC-62): > 100 µM (inactive)
GI50 (HL-60): 59.2 µM (inactive)
GI50 (SR): > 100 µM (inactive)

N#Cc1c(-c2ccc([N+](=O)[O-])cc2)c(C#N)c(=O)n(NS(=O)(=O)c2ccccc2)c1O
GI50 (MDA-N): > 100 µM (inactive)
GI50 (UACC-257): > 100 µM (inactive)
GI50 (HCC 2998): > 100 µM (inactive)
GI50 (MDA-MB-231): > 100 µM (inactive)
GI50 (BT-549): > 100 µM (inactive)
GI50 (SK-OV-3): > 100 µM (inactive)
GI50 (COLO 205): > 100 µM (inactive)
GI50 (MDA-MB-435): > 100 µM (inactive)
GI50 (CCRF-CEM): > 100 µM (inactive)
GI50 (SK-MEL-2): > 100 µM (inactive)
GI50 (SK-MEL-28): > 100 µM (inactive)
GI50 (HCT-15): > 100 µM
GI50 (SF-295): > 100 µM (inactive)
GI50 (NCI/ADR-RES): > 100 µM (inactive)
GI50 (NCI-H522): > 100 µM (inactive)
GI50 (EKVX): > 100 µM (inactive)
GI50 (IGROV-1): > 100 µM (inactive)
GI50 (U-251): > 100 µM (inactive)
GI50 (SN12C): > 100 µM (inactive)
GI50 (HOP-92): > 100 µM (inactive)
GI50 (NCI-H226): > 100 µM (inactive)
GI50 (CAKI-1): > 100 µM (inactive)
GI50 (SW-620): > 100 µM (inactive)
GI50 (ACHN): > 100 µM (inactive)
GI50 (786-0): > 100 µM (inactive)
GI50 (A498): > 100 µM (inactive)
GI50 (MCF7): > 100 µM (inactive)
GI50 (K562): > 100 µM (inactive)
GI50 (A549): > 100 µM (inactive)
GI50 (LOX IMVI): > 100 µM (inactive)
GI50 (RPMI-8226): > 100 µM (inactive)
GI50 (TK-10): > 100 µM (inactive)
GI50 (OVCAR-4): > 100 µM (inactive)
GI50 (PC-3): > 100 µM (inactive)
GI50 (RXF 393): > 100 µM (inactive)
GI50 (SNB-19): 18.5 µM (inactive)
GI50 (OVCAR-3): > 100 µM (inactive)
GI50 (SF-539): > 100 µM (inactive)
GI50 (HT-29): > 100 µM (inactive)
GI50 (HCT-116): > 100 µM (inactive)
GI50 (SK-MEL-5): > 100 µM (inactive)
GI50 (M14): > 100 µM (inactive)
GI50 (NCI-H460): > 100 µM (inactive)
GI50 (OVCAR-5): > 100 µM (inactive)
GI50 (HOP-62): > 100 µM (inactive)
GI50 (Malme-3M): > 100 µM (inactive)
GI50 (OVCAR-8): > 100 µM (inactive)
GI50 (UACC-62): > 100 µM (inactive)
GI50 (HL-60): > 100 µM (inactive)
GI50 (MOLT-4): > 100 µM (inactive)
